In a melting point compilation (Tetko et al.; mined from patent text by program, amines drawn as free bases though some values may be those of a salt):

Structure (SMILES)	melting point [°C]
O=Cc1ccc2ccc3c4ccccc4ccc3c2c1	177 to 178
Cc1ccc(-c2nc(NCCN3CCOCC3)cc(Sc3ccc(Cl)cc3)n2)cc1	141 to 142
O=c1ccc(S(=O)(=O)c2cc3ccccc3s2)n[nH]1	209 to 210
COc1ccc(-c2nnc(SC)nc2-c2ccc(OC)cc2)cc1	152 to 155
CSC(=S)N(C)N=Cc1ccco1	103
Cc1ccc2[nH]cc(C3=C(c4c[nH]c5ccc(C)cc45)C(=O)N(C)C3=O)c2c1	270 to 275
CCCC(=O)c1cc2nc(C=O)n(C)c2cc1C	107 to 108
CCn1nc(OCCCc2ccc(OC(C)C)cc2OCc2ccc(Cl)cc2Cl)cc1CCC(=O)O	110 to 111
c1ccc(Cn2nnc3ccc(Cn4ccnc4)cc32)cc1	85.4
CN1CCCc2cc(OC(=O)Nc3ccc(Cl)c(C(F)(F)F)c3)ccc21	152
CCOC(=O)C(=O)c1scc(Br)c1Br	71
O=[N+]([O-])c1ccc(Oc2cncc(Cl)c2)cc1	80 to 82
O=C(O)c1cc(O)c(O)c([N+](=O)[O-])c1	224 to 226
COc1ccc2c(c1)C(=O)CC1C2CCC2(C)C(O[Si](C)(C)C(C)(C)C)CCC12 (stereo unspecified)	159 to 160
COc1cc(Br)c(I)cc1OC	98 to 100
CCCCOc1ccc(CNC(=O)c2ccccc2[N+](=O)[O-])cc1	101 to 102
O=C(NCCCO)c1cccc(Nc2nccc(-c3ccnc(NCCCO)c3)n2)c1	153 to 154
COc1ccc([C@]2(C)CNC(=O)O2)cc1O	142
CC(C)c1c(Cl)[nH]c(=O)[nH]c1=O	250 to 251
CCCCCCCCCCCCCC(=O)OCC1OC(n2cc(F)c(=O)n(C(=O)c3ccc(C)cc3)c2=O)CC1OC(=O)CCCCCCCCCCCCC (stereo unspecified)	76 to 77
CCCON=C(C(=O)OCC)c1csc(N)n1	142 to 144
CCn1nccc1NC(=O)c1cc(C(=O)OC)c(O)c2ncc(Cc3ccc(F)cc3)cc12	219 to 220
CCC(Oc1ccccc1OC)C(=O)OC1CC(O)C=C2C=CC(C)C(CCC3CC(O)CC(=O)O3)C21 (mixture of isomers)	116 to 117
Cn1ncnc1COc1nc2c(cc1C(C)(C)C)nnn2-c1ccccc1	165 to 167
COc1cc2[nH]c(C)c(CCN3CCN(NC(=O)Nc4ccccc4)CC3)c2cc1OC	170 to 173
COc1ccc2cc(-n3c(=O)[nH]c4ccccc43)cc(C)c2n1	280
CC1(C)C2CC[C@@]1(C)C(=O)C(C(=O)Nc1ccc(Cl)cc1)C2=O (stereo partly specified)	88 to 90
O=C(Nc1ccccc1C(=O)NCCc1ncc[nH]1)c1ccc(-c2ccccc2)cc1	197 to 201

Structure (SMILES)	melting point [°C]
CCOc1cc(N(CC)CC)ccc1-c1nc2n(C3CCCC3)[nH]c(CC)c-2c(=O)n1	138 to 139
COC(=O)NN=C1CCCCC1=Cc1ccc(Cl)cc1	160 to 162
Nc1nc2ccccc2c2sc(C=Cc3ccccc3)nc12	239 to 241
Nc1ccc(C#Cc2ccccc2)c(-c2cc(N)ccc2C#Cc2ccccc2)c1	159 to 161
O=c1nc2ccccc2c2cc(CO)[nH]n12	225 to 230
CCCC=Cc1c(C(C)C)nc(C(C)C)c(CO)c1-c1cccc(F)c1	117 to 118
O=C(c1ccccc1)[C@@]1([N+](=O)[O-])[C@@H]2C=C[C@@H](C2)[C@H]1c1ccccc1 (relative stereo)	119 to 120
CCCc1c(OCc2nc(N)c3nccnc3n2)ccc(C(C)=O)c1O	178 to 180
COCC(C)N(C)Cc1c(-c2ccc(NC(=O)NOC)cc2)sc2c1c(=O)n(-c1ccccc1)c(=O)n2Cc1c(F)cccc1F (stereo unspecified)	154 to 155
O=C(O)c1cc(O)c2c(c1)C(=O)c1ccc(F)c(O)c1C2=O	> 275
CC(C)(C)ON=C1CC(c2ccc(S(C)(=O)=O)cc2)=C1c1ccccc1	150 to 152
Fc1ccc(-c2n[nH]cc2-c2ccnc(Cl)n2)cc1	204 to 205
CCOC(=O)CN1C(=O)C(NC(=O)c2ccc3ccccc3c2)C(c2ccc(OC)cc2)Sc2ccccc21 (stereo unspecified)	183 to 186
CC1=C(C(O)c2ccc3c(c2)CCN(C(N)=O)C3)C(C)(C)CCC1 (stereo unspecified)	88.3 to 89
CC1=C(C(=O)OC(C)C)C(c2ccccc2F)n2nncc2N1 (stereo unspecified)	137 to 139
CCC1CCCCn2c1nc(-c1ccncn1)cc2=O (racemic)	128 to 130
O=C1CC(c2cccc(-n3ccnn3)c2)=Nc2ccc(-c3ccccc3F)cc2N1	209 to 212
C#CCNC(=O)N1CC(c2cccc(C(F)(F)F)c2)C1	121
CCc1nn(C2CCCC2)c2cc(C(=O)Nc3cccnc3)ccc12	133 to 135
O=Cc1ccc(-c2ccc(-c3ccsc3)s2)s1	155 to 157
CC1(C)CCc2c(N3CCOCC3)nc3sc4c(NCc5ccncc5)ncnc4c3c2C1	240 to 241
O=C=Nc1ccc(N2CCOCC2)cc1	221 to 225
CCOC(=O)C(C)(C)OC(=O)c1cc([N+](=O)[O-])ccc1Cl	64 to 66
COC(=O)CC(O)CC(=O)C=Cc1ccc(Cl)cc1Cl (stereo unspecified)	77 to 79
COc1cc(Cc2cnc(NCCCCc3ncccc3OC)[nH]c2=O)ccn1	72 to 74
CON=C1CCC(N(C)C(=O)c2ccc3nonc3c2)CC1 (stereo unspecified)	167 to 168
CCS(=O)(=O)c1ccc(S(=O)(=O)CC)nc1	148 to 150

Now from value to compound:

melting point [°C]	Structure (SMILES)
74 to 75	CS(=O)(=O)OCCCc1ccc(OCc2ccccc2)cc1
135 to 136	CC(C)Oc1ccc2c(c1)Oc1cc(F)ccc1S2(=O)=O
77 to 78	CCCCCCCCCCCCCCCCSCC(CO)n1nnnc1C (stereo unspecified)
66.5 to 68.1	COC(=O)c1ccc(Cl)c(C=O)c1SC
109 to 110	COc1cc(Cl)c(N)cc1C(=O)NCC1CCCO1 (stereo unspecified)
> 260	COc1ccc2c3c([nH]c2c1)C(=O)N=NC3=O
100	CCCCCCCCCCNC(CCCNC(=N)N)C(=O)O (stereo unspecified)
278	NS(=O)(=O)c1ccc(-c2noc(-c3cnn4c(C(F)F)cc(-c5ccc(C(F)(F)F)cc5)nc34)n2)s1
95 to 97	CC(=O)OC1CCC(n2cnc3cc(Cl)c(Cl)cc32)C1OC(C)=O (stereo unspecified)
109 to 111	O=C(NCc1cccs1)c1ccccc1C(c1ccc(O)cc1)c1ccc(O)cc1
131 to 133	CCOCC(=O)C(=CN(CC)CC)c1cccc(C(F)(F)F)c1
190	COc1ccc(-c2nc3cc(F)ccc3s2)cc1OC(=O)c1ccccc1Cl
85 to 86	CCOC(=O)/C=C(C)/C=C/C1=C(Br)CCC1
202	CCCCn1c(=O)cnn(-c2ccc(N3CCN(c4ccc(O)cc4)CC3)cc2)c1=O
110 to 111	CCOC1=CC=CC(C=O)C1(OCc1ccccc1)[N+](=O)[O-] (stereo unspecified)
143 to 144	COCCOc1c(F)c(Oc2ccc(S(C)(=O)=O)nc2)cc2cc(C3=NCC(CC(N)=O)S3)[nH]c12 (stereo unspecified)
86 to 88	CCCCCC(=O)Nc1nc2c(ncn2CCC(CO)CO)c(=O)[nH]1
222 to 224	c1ccc(-c2cn3c(nc4ccccc43)s2)nc1
94 to 96	C=CCOc1cc(CNc2nc(C)nc(C)c2Cl)ccc1OCc1ccccc1
> 250	Nc1nc(N)nc(-c2cnc3ccccc3c2)n1
250	CCCc1c2occc(=O)c2cc2c(=O)c(-c3ccc(C(=O)O)cc3)c(C(=O)O)oc12
234 to 237	CCC(=O)Nc1nnc(S)s1
207 to 209	O=C(Nc1nc(-c2ccc([N+](=O)[O-])cc2)cs1)OCC(Cl)(Cl)Cl

melting point [°C]	Structure (SMILES)
134	CCCCCCN(CCCCCC)c1ccc(C2=C(C#N)C(=C(C#N)C#N)OC2(C)C)s1
183 to 185	CC1CCC(c2ccc(OCC(=O)O)c(Cl)c2Cl)=CC1=O (stereo unspecified)
115 to 125	CC(=O)Cc1ccc2c(c1)C1(C)CCN(C)C1N2C (stereo unspecified)
190 to 193	O=C(Nc1nccc2ccc(CO)cc12)c1ccccc1
276 to 278	O=C(O)c1cn2c(n1)COc1ccc(Cl)cc1-2
193 to 195	O=S(=O)(/C=C/c1ccc(F)cc1F)CS(=O)(=O)/C=C/c1ccc(F)cc1F
152 to 153	Nc1ccc(N=Nc2ccccc2)cc1Cl
117 to 120	COc1cccc(C(=O)O)c1NC(=O)C(C)(C)C
150 to 151	COc1ccc(CSc2ccc(OCC(=O)O)c3c2CCC3)cc1OCc1ccc(C(F)(F)F)cc1
132 to 134	CC(C)(C)OC(=O)N1CCn2c(c(C#N)c(Cl)c2C2CC2)C1
88	Cc1cc(-n2ccnc2)c2cccc(OCc3c(Cl)ccc(S(=O)(=O)N4CCC[C@H]4C(=O)NCCN(C)C)c3Cl)c2n1
164 to 167	CCCn1c(=O)c(C(=O)OCC)c(O)c2cnc(-c3ccccc3)nc21
126 to 128	COc1cc(C)c(S(=O)(=O)c2ccccc2C)cc1OC
125 to 126	COc1cc2c(cc1OCc1ccccc1)CCN(Cc1ccncc1)C2
189 to 190	CCOC(=O)CNC(=S)NC(=Nc1ccc([N+](=O)[O-])cc1)c1ccccc1
143 to 145	CS(=O)(=O)Nn1c(=O)[nH]c2cc(C(F)(F)F)c(-n3cnc(C#N)c3)cc2c1=O
70 to 72	CCCCCCCCCCCCCCCCCCOc1cc(OCCCOc2ccc(S(C)(=O)=O)cc2)cc(N(CC(=O)OC)CC(=O)OC)c1
186 to 188	FC(F)(F)c1nc(Cl)c(Cl)[nH]1
252 to 254	Cn1nc2c(N)nc3ccccc3c2c1CC1(F)CCOCC1
> 80	CCN1c2ncccc2C(=O)N(C)c2ccc(-c3cc[nH]c3C(C)=O)nc21
88 to 90	COc1ccc(-c2cccc(COCCc3cccc(NS(=O)(=O)C(F)(F)F)c3)c2)cc1
183 to 184	CCOC(=O)c1cc(C(=O)NC)nc(C(=O)NC)c1
258	CNc1nc(Nc2ccc(Cl)c(Cl)c2)ncc1NP(C)(C)=O
